Experimental data published in patent US20250041316A1, “METHODS AND COMPOSITIONS FOR TREATING LIVER DISEASE” (Temple University-Of The Commonwealth System of Higher …, priority 2023, published 2025).

Key:
[1] = system: female mice fed with a Western diet
Description: (§1) FIG. 1A depicts a representative illustration of the experimental system used to study the effects of DHT on metabolism. Mice were fed with a Western diet (WD). At 45 days of age, one group of mice were administered DHT via pellet at Week 0 and at Week 4-5 (WD+DHT). One group of WD fed mice were not administered with DHT (WD). Mice were euthanized at Week 8. Ex vivo lipolysis, histology and molecular studies were performed.

[2] = system: prolow-density lipoprotein-related protein 1; details: DHT with WD vs WD alone
Description: as §1

regucalcin = details: WD+DHT vs WD mice
Description: as §1

mice fed with WD = details: WD 8 weeks then DHT 3 weeks under WD vs WD alone 11 weeks; FIG. 5

Compound: C[C@]12CCC(=O)C[C@@H]1CC[C@@H]1[C@@H]2CC[C@]2(C)[C@@H](O)CC[C@@H]12 [DHT, dihydrotestosterone]
- brown adipose cell size (histology) ([1]; DHT with WD mice): enlarged
- triglyceride (TG) in circulation ([1]; WD+DHT vs WD mice): Significantly elevated levels
- fat in liver (liver images) ([1]; WD+DHT vs WD mice, FIG. 1C): lower levels of fat
- liver triglyceride level ([1]; WD+DHT vs WD mice, FIG. 2A): lower levels
- liver cholesterol level ([1]; WD+DHT vs WD mice, FIG. 2B): lower levels
- liver lipid deposition (oil red and H&E staining, histology) ([1]; WD+DHT vs WD mice, FIG. 4): decreased lipid deposition
- glucose tolerance ([1]; at 3 weeks, DHT with WD vs WD alone, adult female mice): more impaired glucose intolerance
- pyruvate tolerance ([1]; at 6-7 weeks, DHT with WD vs WD alone, adult female mice): more impaired pyruvate tolerance
- prolow-density lipoprotein-related protein 1 in liver [2]: significantly altered
- regucalcin in liver (regucalcin): significantly altered
- liver triglyceride (mice fed with WD): lower triglyceride
